How the values were obtained:
HSA (Sudlow site I) = molecular target: T1, HSA (Sudlow site I) (Homo sapiens, UniProt P02768); assay: doubly-selective R1-filtered and spin-echo 1H NMR competition binding, spy molecule warfarin; conditions: 25 μM, HSA 0 to 2.5 μM
T1 construct: Fatty acid free human serum albumin (A-3782) was purchased from Sigma and used without further purification; purchased Sigma A-3782

HSA [1] = molecular target: T2, HSA (Homo sapiens, UniProt P02768); conditions: up to concentration of several hundred μM; cited from earlier work
T2 sequence (P02768 25-609): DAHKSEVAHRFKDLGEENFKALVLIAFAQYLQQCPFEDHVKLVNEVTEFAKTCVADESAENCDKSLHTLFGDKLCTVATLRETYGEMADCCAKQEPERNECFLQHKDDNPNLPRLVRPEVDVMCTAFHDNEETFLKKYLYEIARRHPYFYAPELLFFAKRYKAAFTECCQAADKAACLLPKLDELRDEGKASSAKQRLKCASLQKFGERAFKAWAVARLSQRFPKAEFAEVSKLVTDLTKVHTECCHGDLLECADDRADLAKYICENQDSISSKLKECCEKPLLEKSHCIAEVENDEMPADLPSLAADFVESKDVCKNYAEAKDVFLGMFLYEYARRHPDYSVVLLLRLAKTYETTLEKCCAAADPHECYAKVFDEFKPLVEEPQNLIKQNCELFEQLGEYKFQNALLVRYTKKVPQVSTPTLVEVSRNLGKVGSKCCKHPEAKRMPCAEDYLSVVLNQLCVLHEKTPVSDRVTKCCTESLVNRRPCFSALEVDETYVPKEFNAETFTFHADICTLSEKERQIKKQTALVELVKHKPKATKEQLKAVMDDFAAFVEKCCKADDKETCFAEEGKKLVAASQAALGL

HSA [2] = molecular target: T2, HSA; assay: previous NMR measurement of the low affinity second binding site for Trp; conditions: 20° C., measured previously by NMR
Source text: […]. J., 273, 641-644 (1991)) is somewhat larger. This small difference can probably be ascribed to the presence of a low affinity second binding site for Trp. […] Despite this complication, the values that are rapidly derived from the NMR screening experiments serve for most of the purposes in the early stages of drug discovery.

HSA [3] = molecular target: T2, HSA; conditions: 20° C.; read-out: KD^(a) binding constant of L-Trp measured with equilibrium dialysis; cited from earlier work

T1 sequence (P02768 25-609): as above

| binding of the control molecule to HSA (signal intensity as a function of protein concentration) (HSA (Sudlow site I)) | affinity for the low affinity second binding site (HSA [2]) | Structure (SMILES) | interaction with HSA (HSA [1]) | Kd (HSA [3]) |
| --- | --- | --- | --- | --- |
| does not bind |  | Cc1ccc2[nH]cc(CC(N)C(=O)O)c2c1 (stereo not shown) [5-CH3 D,L Trp (2), 5-CH3 D,L Trp] | does not interact with HSA |  |
|  | several hundreds | N[C@@H](Cc1c[nH]c2ccccc12)C(=O)O [Trp, tryptophan] |  | 23 µM |

— patent publication US7470543B2, “Methods for identifying ligands using competitive binding 1H NMR experiments” (Nerviano Medical Sciences S.r.l., priority 2002, dated 2008)
